Legend:
analgesia = experiment: Propensity for reversing analgesia after oral administration; format: in vivo; details: administered orally; compared with alvimopan
[1] = Solubility of the drug substance; format: physicochemical; details: for solubility in water: dihydrate

Row | solubility in water [1] | SMILES | propensity for reversing analgesia (analgesia) | solubility as a function of pH ([1]; acid pH versus basic pH) | solubility in water ([1]; listed as compound of formula (II))
1 | – | C[C@H]1CN(C[C@H](Cc2ccccc2)C(=O)O)CC[C@@]1(C)c1cccc(O)c1 [(3R, 4R, S)-Q-CH2CH(CH2(C6H5))C(O)OH, (αS,3R,4R)-4-(3-hydroxyphenyl)-3,4-dimethyl-α-(phenylmethyl)-1-piperidinepropanoic acid monohydrate] | much greater propensity for undesirably reversing analgesia than alvimopan | – | –
2 | extremely low solubility in water | C[C@H]1CN(C[C@H](Cc2ccccc2)C(=O)NCC(=O)O)CC[C@@]1(C)c1cccc(O)c1 [Alvimopan, [[2(S)-[[4(R)-(3-hydroxyphenyl)-3(R),4-dimethyl-1-piperidinyl]methyl]-1-oxo-3-phenylpropyl]amino]acetic acid dihydrate] | – | more soluble at an acid pH than a basic pH | low solubility in water except at low or high pH conditions

Reference: patent US20070092576A1, “Compositions containing opioid antagonists” (Adolor Corporation, priority 2005, published 2007)
